Consider 19 compounds from publication PMC4008786, “Molecular Characterization, Expression Pattern, and Ligand-Binding Property of Three Odorant Binding Protein Genes from Dendrolimus tabulaeformis” (Journal of Chemical Ecology, 2014).

The target in assay [1] is T1, DtabGOBP2 (Dendrolimus tabulaeformis, UniProt A0A059PCR0). In words: Competitive fluorescence binding assay (displacement of 1-NPN), DtabGOBP2. The protocol: (§1) Emission fluorescence spectra were performed on an F-4500 fluorescence Spectrophotometer (Hitachi, Japan) at 25 °C with a 1 cm light path quartz cuvette and 5 nm slits for both excitation and emission. The protein was dissolved in 50 mM Tris–HCl buffer, pH 7.4, while ligands used in the binding assay were added as 1 mM methanol solutions. The fluorescence of the mixture was recorded after 5 min to allow the signal to stabilize.
T1 sequence (A0A059PCR0 entry or part of it): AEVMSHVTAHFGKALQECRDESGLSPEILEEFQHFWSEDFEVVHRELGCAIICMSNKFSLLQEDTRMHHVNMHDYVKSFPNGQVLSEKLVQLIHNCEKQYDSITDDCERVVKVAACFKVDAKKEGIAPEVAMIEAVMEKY
(§2) To measure the affinity of the fluorescent ligand 1-NPN to DtabPBP1, DtabGOBP1, and DtabGOBP2, a 2 μM solution of the protein in 50 mM Tris–HCl, pH 7.4, was titrated with aliquots of 1 mM 1-NPN dissolved in methanol to a final concentration of 16 μM. The probe was excited at 337 nm, and emission spectra were recorded between 380 and 450 nm. To evaluate the effect of pH on the binding affinity of the three OBPs, we also measured their binding with 1-NPN at a pH range of 4.5–9.0. The displacement of 1-NPN by selected ligands was measured in competitive binding assays using both the protein and 1-NPN at 2 μM. The mixtures were titrated with 1 mM methanol solutions of each competitor over concentration ranges of 2–16 μM. The fluorescence of the mixture was recorded after 5 min. Dissociation constants for 1-NPN and the stoichiometry of binding were obtained from Scatchard plots of the binding data through processing the data with Prism software. For other competitor ligands, the dissociation constants were calculated from the corresponding IC50 values using the equation: Ki = [IC50]/(1 + [1 − NPN]/K1 − NPN), where [1-NPN] is the free concentration of 1-NPN and K1-NPN is the dissociation constant of the protein complex/1-NPN.
(§3) To understand the ligand binding properties of the three OBPs, we prepared the recombinant proteins. Figure S5 reports the expression and purification of them. Then, we performed competitive ligand-binding experiments using well established protocols for other insect OBPs (Ban et al. [2002], [2003b]; Guo et al. [2012]; He et al. [2010]; Zhou et al. [2009]) to investigate the specificity of the binding pocket in the three D. tabulaeformis OBPs. The probe was excited at 337 nm, and emission spectra were recorded between 380 and 450 nm. […] The three proteins DtabPBP1, DtabGOBP1, and DtabGOBP2 bind 1-NPN with dissociation constants 12.5 ± 1.7, 14.4 ± 2.6, and 8.5 ± 0.6, respectively (Fig. 4a).

Assay [2] has as its target T2, DtabGOBP1 (Dendrolimus tabulaeformis, UniProt A0A059PCQ9). In words: Competitive fluorescence binding assay (displacement of 1-NPN), DtabGOBP1. The conditions noted are these: for abnormal fluorescence binding curve (in words): 1-NPN fluorescence on addition of ligand. The method, then:
as §1, §2, §3

Assay [3] has as its target T3, DtabPBP1 (Dendrolimus tabulaeformis, UniProt A0A059PCM8). Put plainly: Competitive fluorescence binding assay (displacement of 1-NPN), DtabPBP1. The protocol: as §1, §2, §3
The target of assay [4] is T3, DtabPBP1. Put plainly: Fluorescence titration of protein with 1-NPN (Scatchard plot), DtabPBP1. The format is binding. The method, then: as §1
(§4) To measure the affinity of the fluorescent ligand 1-NPN to DtabPBP1, DtabGOBP1, and DtabGOBP2, a 2 μM solution of the protein in 50 mM Tris–HCl, pH 7.4, was titrated with aliquots of 1 mM 1-NPN dissolved in methanol to a final concentration of 16 μM. The probe was excited at 337 nm, and emission spectra were recorded between 380 and 450 nm. To evaluate the effect of pH on the binding affinity of the three OBPs, we also measured their binding with 1-NPN at a pH range of 4.5–9.0. The displacement of 1-NPN by selected ligands was measured in competitive binding assays using both the protein and 1-NPN at 2 μM. The mixtures were titrated with 1 mM methanol solutions of each competitor over concentration ranges of 2–16 μM. The fluorescence of the mixture was recorded after 5 min. […]
(§5) To understand the ligand binding properties of the three OBPs, we prepared the recombinant proteins. […] The probe was excited at 337 nm, and emission spectra were recorded between 380 and 450 nm. […]

Assay [5] addresses T2, DtabGOBP1. In words: Fluorescence titration of protein with 1-NPN (Scatchard plot), DtabGOBP1. The format is binding. The method, then:
as §1, §4, §5

Assay [6] concerns the target T1, DtabGOBP2. Put plainly: Fluorescence titration of protein with 1-NPN (Scatchard plot), DtabGOBP2. The format is binding. The method, then: as §1, §4, §5
Where [7] appears, read: DtabGOBP2, 1-NPN fluorescence at ligand max conc 16, protein and 1-NPN at 2 μM, pH 7.4.
[8] abbreviates: DtabGOBP1, 1-NPN fluorescence at ligand max conc 16, protein and 1-NPN at 2 μM, pH 7.4.
Where [9] appears, read: DtabPBP1, 1-NPN fluorescence at ligand max conc 16, protein and 1-NPN at 2 μM, pH 7.4.
The mark [10] stands for this setting: DtabGOBP2, 1-NPN fluorescence at ligand max conc 16, protein and 1-NPN at 2 μM, pH 7.4, read-out: %of max±SE.
Where [11] appears, read: DtabGOBP1, 1-NPN fluorescence at ligand max conc 16, protein and 1-NPN at 2 μM, pH 7.4, read-out: %of max±SE.
Setting [12] is: DtabPBP1, 1-NPN fluorescence at ligand max conc 16, protein and 1-NPN at 2 μM, pH 7.4, read-out: %of max±SE.
The mark [13] stands for this setting: 2 μM protein, 50 mM Tris–HCl pH 7.4, Scatchard plot, read-out: dissociation constant (Kd) of 1-NPN.
Setting [14] is: pH 4.5–9.0, protein and 1-NPN at 2 μM.

Where two headings read alike, the source gives them in different places.

T2 sequence (A0A059PCQ9 entry or part of it): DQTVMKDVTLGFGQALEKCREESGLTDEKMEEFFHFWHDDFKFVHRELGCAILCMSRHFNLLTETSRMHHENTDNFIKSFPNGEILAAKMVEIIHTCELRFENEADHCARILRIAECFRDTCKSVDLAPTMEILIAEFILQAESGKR
T3 sequence (A0A059PCM8 entry or part of it): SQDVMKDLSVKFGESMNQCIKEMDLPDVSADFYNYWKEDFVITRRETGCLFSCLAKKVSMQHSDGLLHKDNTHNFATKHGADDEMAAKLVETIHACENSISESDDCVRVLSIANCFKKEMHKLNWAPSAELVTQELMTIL

On to `C=C(C)C1CC=C(C)CC1` (single isomer, unassigned; (+)) [(+)-Limonene, (+)-limonene], for which the “%of max±SE” value at DtabGOBP2 [1] (setting [7]) is on record as 88.0±1.3%; at DtabGOBP1 [2] (setting [8]), 78.2±1.1%; at DtabPBP1 [3] (setting [9]) it was 94.4±0.4%.
Regarding `C=CC(=C)CCC=C(C)C` [β-Myrene, β-myrene], the figures for the “%of max±SE” value on DtabGOBP2 [1] (setting [7]), on DtabGOBP1 [2] (setting [8]) and at DtabPBP1 [3] (setting [9]) were 83.3±0.7%, 67.8±0.8% and 86.5±0.8%, respectively. This compound also registered a 1-NPN displaced at DtabGOBP1 [2] (DtabGOBP1, at a max concentration of ligand) of 30%.
In the case of `CC1=CCC2CC1C2(C)C` (stereo not drawn) [(-)-α-Pinene, (−)-α-pinene], the “%of max±SE” value was found to be 90.8±0.4% at DtabGOBP2 [1] (setting [7]), 96.4±0.3% at DtabGOBP1 [2] (setting [8]) and 85.4±0.4% at DtabPBP1 [3] (setting [9]).
In the case of `C=CC(C)(O)CCC=C(C)C` (stereo not shown) [Linalool, linalool], the activity at 16 µM at DtabGOBP2 [1] (setting [10]) was found to be 95.2 ± 0.6%; at DtabGOBP1 [2] (setting [11]), 90.4 ± 0.9%; at DtabPBP1 [3] (setting [12]), 90.4 ± 0.7%.
The corresponding values for `CCCC/C=C/C=C\CCCCOC(C)=O` [Z5,E7-12:OAc, (5Z,7E)-5,7-dodecadien-1-yl acetate] are 66.2 ± 0.3%, 67.9 ± 1.1% and 74.7 ± 1%.
With `CC/C=C\CCO` [(Z)-3-Hexen-1-ol, (Z)-3-hexen-1-ol], the activity at 16 µM on DtabGOBP2 [1] (pH 7.4, read-out: %of max±SE) amounted to 90.8 ± 0.6%; at DtabGOBP1 [2] (pH 7.4, read-out: %of max±SE) it was 96.5 ± 1.4%; at DtabPBP1 [3] (pH 7.4, read-out: %of max±SE), 94.6 ± 0.2%.
On to (+)-α-pinene, for which the “%of max±SE” value was found to be 88.8±2.2% on DtabGOBP2 [1] (setting [7]), 98.3±2.2% on DtabGOBP1 [2] (setting [8]) and 83.9±0.3% on DtabPBP1 [3] (setting [9]).
The corresponding values for `C=C1CCC2CC1C2(C)C` (stereo not drawn) [(-)-β-Pinene, (−)-β-pinene] are 83.2±1.1%, 82.8±1.0% and 80.7±0.5%.
Turning to `CC1=CCC(=C(C)C)CC1` [Terpinolene, terpinolene], the activity at 16 µM on DtabGOBP2 [1] (setting [10]) amounted to 85.3 ± 1.8%; at DtabGOBP1 [2] (setting [11]) it was 100 ± 3.2%; on DtabPBP1 [3] (setting [12]), 90.3 ± 0.2%.
For the compound `CCCCCC/C=C\CCCCO` [Z5-12:OH, (Z)-5-dodecenyl alcohol], the values for the activity at 16 µM at DtabGOBP2 [1] (setting [10]), on DtabGOBP1 [2] (setting [11]) and at DtabPBP1 [3] (setting [12]) were 67 ± 0.5%, 77.2 ± 0.3% and 75.1 ± 0.2%, respectively.
`CC1=CCC2C(C1)C2(C)C` (single isomer, unassigned; (+)) [(+)-3-Carene, (+)-3-carene]: the “%of max±SE” value is listed as 84.3±0.9% at DtabGOBP2 [1] (setting [7]), “Abnormal” at DtabGOBP1 [2] (setting [8]) and 85.3±1.7% on DtabPBP1 [3] (setting [9]). In addition, on DtabGOBP1 [2] (DtabGOBP1), the “abnormal fluorescence binding curve (in words)” value is listed as “increased 1-NPN fluorescence”.
As for `C=C1C2CCC(C2)C1(C)C` (stereo not shown) [Camphene, camphene], the activity at 16 µM on DtabGOBP2 [1] (pH 7.4, read-out: %of max±SE) is 93.8 ± 0.7%; at DtabGOBP1 [2] (pH 7.4, read-out: %of max±SE) it was 96.7 ± 1.2%; on DtabPBP1 [3] (pH 7.4, read-out: %of max±SE) it was 96.5 ± 0.2%.
In the case of `CCCC/C=C/C=C\CCCCO` [Z5,E7-12:OH, (5Z,7E)-5,7-dodecadien-1-ol], the activity at 16 µM was 65.6 ± 0.8% on DtabGOBP2 [1] (setting [10]), 81 ± 1% at DtabGOBP1 [2] (setting [11]) and 74.5 ± 0.6% on DtabPBP1 [3] (setting [12]).
Regarding `CCCCCC/C=C\CCCCOC(C)=O` [Z5-12:OAc, (Z)-5-dodecenyl acetate], the activity at 16 µM on DtabGOBP2 [1] (setting [10]) was determined as 66.6 ± 0.7%. Besides, the “%of max±SE” value at DtabGOBP1 [2] (setting [8]) and on DtabPBP1 [3] (setting [9]) was “Abnormal” in each case. For the same compound, on DtabGOBP1 [2] (DtabGOBP1), the “abnormal fluorescence binding curve (in words)” value is given as “increase in fluorescence at high concentrations”.
Consider `CC1=CC=C(C(C)C)CC1` [α-Terpinene, α-terpinene], for which the activity at 16 µM is 93.2 ± 0.9% at DtabGOBP2 [1] (pH 7.4, read-out: %of max±SE); 81.8 ± 1.3% at DtabGOBP1 [2] (pH 7.4, read-out: %of max±SE); 86.7 ± 0.7% at DtabPBP1 [3] (pH 7.4, read-out: %of max±SE).
Consider `c1ccc(Nc2cccc3ccccc23)cc1` [1-NPN], for which the values for the Kd on DtabPBP1 [4] (setting [13]), at DtabGOBP1 [5] (setting [13]) and at DtabGOBP2 [6] (setting [13]) were 12.5 ± 1.7 µM, 14.4 ± 2.6 µM and 8.5 ± 0.6 µM, respectively. For the same compound, the “effect of pH on affinity for 1-NPN (in words)” value on DtabPBP1 [4] (setting [14]), at DtabGOBP1 [5] (setting [14]) and on DtabGOBP2 [6] (setting [14]) was “rapid loss of affinity in acidic conditions” throughout.
As for `CCCC/C=C/C=C\CCCCOC(=O)CC` [Z5,E7-12:OPr, (5Z,7E)-5,7-dodecadien-1-yl propionate], the Ki at DtabGOBP2 [1] (DtabGOBP2) worked out at 2.7 µM; on DtabGOBP1 [2] (DtabGOBP1), 1.9 µM; at DtabPBP1 [3] (DtabPBP1), 3.61 µM. Further, the “binding affinity / displacement of 1-NPN (in words)” value at DtabGOBP2 [1] (DtabGOBP2), on DtabGOBP1 [2] (DtabGOBP1) and at DtabPBP1 [3] (DtabPBP1) was “high binding affinities” in each case. For the same compound, the activity at 16 µM stood at 44.8 ± 0.7% on DtabGOBP2 [1] (setting [10]), 37.1 ± 0.5% on DtabGOBP1 [2] (setting [11]) and 44.5 ± 0.6% on DtabPBP1 [3] (setting [12]). Also, the Kd at DtabGOBP2 [1] (DtabGOBP2, calculated from IC50 of 1-NPN displacement, read-out: KD±SE) is 2.7 ± 0.3 µM; on DtabGOBP1 [2] (DtabGOBP1, calculated from IC50 of 1-NPN displacement, read-out: KD±SE), 1.9 ± 0.2 µM; on DtabPBP1 [3] (DtabPBP1, calculated from IC50 of 1-NPN displacement, read-out: KD±SE), 3.6 ± 0.3 µM.
`CC1=CCC(C(C)C)=CC1` [γ-Terpinene, γ-terpinene]: the activity at 16 µM is 99.3 ± 0.4% on DtabGOBP2 [1] (pH 7.4, read-out: %of max±SE); 71.8 ± 0.7% on DtabGOBP1 [2] (pH 7.4, read-out: %of max±SE); 88.1 ± 0.3% on DtabPBP1 [3] (pH 7.4, read-out: %of max±SE). Further, the inhibition at 16 µM at DtabGOBP1 [2] (pH 7.4, read-out: 1-NPN displaced) is 30%.
Turning to (−)-limonene [(-)-Limonene], the “%of max±SE” value at DtabGOBP2 [1] (setting [7]) is 94.1±0.8%; on DtabGOBP1 [2] (setting [8]), 80.5±1.1%; on DtabPBP1 [3] (setting [9]) it was 93.8±0.6%.
